Test results published in US20250134938A1 (priority 2023, published 2025).
In brackets after ≈: the same amount, converted by molar mass. Where two headings read alike, the source gives them in different places.

Tests used:
L. lactis CAB701 strain = assay: Antibiotic resistance by E-test (MIC); type: cell-based, Lactococcus lactis subsp. lactis
Protocol: The value at the end of the strip pointed by the inhibitory ring was determined as the minimum inhibitory concentration (MIC).

[1] = biological target: T1, porcine pancreatic lipase type II (Sus scrofa, UniProt P00591); assay: Inhibition of pancreatic lipase; type: biochemical; details: 1000 μg/mL; read-out: Pancreatic lipase inhibition rate (%)
T1 construct: purchased Sigma
T1 sequence (P00591 1-450): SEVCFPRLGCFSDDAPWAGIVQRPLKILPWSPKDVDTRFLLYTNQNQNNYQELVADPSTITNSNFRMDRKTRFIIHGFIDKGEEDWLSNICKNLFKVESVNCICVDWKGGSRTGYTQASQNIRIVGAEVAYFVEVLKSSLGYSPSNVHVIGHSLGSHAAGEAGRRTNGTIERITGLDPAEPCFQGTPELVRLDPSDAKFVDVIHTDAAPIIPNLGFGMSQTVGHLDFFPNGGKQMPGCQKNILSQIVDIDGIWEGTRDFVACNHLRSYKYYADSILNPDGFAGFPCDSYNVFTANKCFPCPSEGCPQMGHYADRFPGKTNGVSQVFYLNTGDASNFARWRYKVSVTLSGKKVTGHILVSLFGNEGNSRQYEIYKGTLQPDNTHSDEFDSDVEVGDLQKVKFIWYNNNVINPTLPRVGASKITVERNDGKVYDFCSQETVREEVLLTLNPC
Protocol: 50 mg of porcine pancreatic lipase type II (Sigma) was suspended in 10 mL of 10 mM Tris-HCl buffer adjusted to pH 8.0, vortexed for 15 minutes, and centrifuged at 4000 rpm for 10 minutes at 18° C. The supernatant was used as an enzyme solution. As a substrate, p-nitrophenyl butyrate (Sigma-Aldrich (Schnelldorf, Germany)) dissolved in acetonitrile to 10 mM was used. […] Tertiary distilled water was used as a negative control group. […] After adding 10 μL of a substrate solution, followed by reaction for 5 minutes at 37° C., absorbance was measured using a microplate reader at 405 nm, which is the maximum absorbance of p-nitrophenol. Pancreatic lipase inhibition rate (%)=[(negative control absorbance-sample absorbance)/negative control absorbance]×100

[2] = Lactococcus lactis, CAB701STRAIN, E-test, MRS agar, 37° C., 72 hours, read-out: MIC

Row | Compound | Evaluation (L. lactis CAB701 strain; MIC against EFSA cut-off value) | Evaluation (L. lactis CAB701 strain) | MIC (L. lactis CAB701 strain; [2]) [µg/mL] | other results
1 | CN[C@H](CC(C)C)C(=O)N[C@H]1C(=O)N[C@@H](CC(N)=O)C(=O)N[C@H]2C(=O)N[C@H]3C(=O)N[C@H](C(=O)N[C@H](C(=O)O)c4cc(O)cc(O)c4-c4cc3ccc4O)[C@H](O)c3ccc(c(Cl)c3)Oc3cc2cc(c3O[C@@H]2O[C@H](CO)[C@@H](O)[C@H](O)[C@H]2O[C@H]2C[C@](C)(N)[C@H](O)[C@H](C)O2)Oc2ccc(cc2Cl)[C@H]1O [Vancomycin] | Allowed | – | – | MIC (L. lactis CAB701 strain; Lactococcus lactis, CAB701STRAIN, 72 h): 0.38 µg/mL (≈ 0.262 µM)
2 | O=C(N[C@H](CO)[C@H](O)c1ccc([N+](=O)[O-])cc1)C(Cl)Cl [Chloramphenicol] | – | Allowed | 1.5 (≈ 4.64 µM) | –
3 | CC[C@H]1OC(=O)[C@H](C)[C@@H](O[C@H]2C[C@@](C)(OC)[C@@H](O)[C@H](C)O2)[C@H](C)[C@@H](O[C@@H]2O[C@H](C)C[C@H](N(C)C)[C@H]2O)[C@](C)(O)C[C@@H](C)C(=O)[C@H](C)[C@@H](O)[C@]1(C)O [Erythromycin] | – | Allowed | – | –
4 | [H]/N=C(/N)N[C@H]1[C@H](O)[C@@H](O)[C@H](O[C@@H]2O[C@@H](C)[C@](O)(C=O)[C@H]2O[C@@H]2O[C@@H](CO)[C@H](O)[C@@H](O)[C@@H]2NC)[C@@H](N/C(N)=N\[H])[C@@H]1O [Streptomycin] | – | Allowed | 16 (≈ 27.5 µM) | –
5 | CC1(C)S[C@@H]2[C@H](NC(=O)[C@H](N)c3ccccc3)C(=O)N2[C@H]1C(=O)O [Ampicillin] | – | Allowed | 0.094 (≈ 0.269 µM) | –
6 | CCCCCCCCCCC[C@@H](C[C@@H]1OC(=O)[C@H]1CCCCCC)OC(=O)[C@H](CC(C)C)NC=O [orlistat] | – | – | – | inhibition at 1000 µg/mL (stock) [1]: 28.6 ± 6.2%
7 | NC[C@H]1O[C@H](O[C@H]2[C@H](O)[C@@H](O[C@H]3O[C@H](CO)[C@@H](O)[C@H](N)[C@H]3O)[C@H](N)C[C@@H]2N)[C@H](O)[C@@H](O)[C@@H]1O [Kanamycin] | – | Allowed | 8 (≈ 16.5 µM) | –
8 | CCC[C@@H]1C[C@@H](C(=O)N[C@@H]([C@H]2O[C@H](SC)[C@H](O)[C@@H](O)[C@H]2O)[C@H](C)Cl)N(C)C1 [Clindamycin] | – | Allowed | 0.25 (≈ 0.588 µM) | –
9 | CN(C)[C@@H]1C(O)=C(C(N)=O)C(=O)[C@@]2(O)C(O)=C3C(=O)c4c(O)cccc4[C@@](C)(O)[C@H]3C[C@@H]12 [Tetracycline] | Allowed | – | 0.094 (≈ 0.212 µM) | –
10 | Gentamicin | Allowed | – | – | minimum inhibitory concentration (MIC) (L. lactis CAB701 strain; E-test): 3 µg/mL; MIC (L. lactis CAB701 strain; E-test, MRS agar, 37° C., 72 hours): 3 µg/mL
